Values of other authors as cited in US20060251720A1, “Localized controlled absorption of statins in the gastrointestinal tract for achieving high blood levels of statins” (priority 2004, published 2006).

Assays:
HMG-CoA reductase = target: T1, HMG-CoA reductase (Homo sapiens, UniProt P04035); details: relative to the beta-hydroxy acid form taken as the drug
T1 sequence (P04035 1-888): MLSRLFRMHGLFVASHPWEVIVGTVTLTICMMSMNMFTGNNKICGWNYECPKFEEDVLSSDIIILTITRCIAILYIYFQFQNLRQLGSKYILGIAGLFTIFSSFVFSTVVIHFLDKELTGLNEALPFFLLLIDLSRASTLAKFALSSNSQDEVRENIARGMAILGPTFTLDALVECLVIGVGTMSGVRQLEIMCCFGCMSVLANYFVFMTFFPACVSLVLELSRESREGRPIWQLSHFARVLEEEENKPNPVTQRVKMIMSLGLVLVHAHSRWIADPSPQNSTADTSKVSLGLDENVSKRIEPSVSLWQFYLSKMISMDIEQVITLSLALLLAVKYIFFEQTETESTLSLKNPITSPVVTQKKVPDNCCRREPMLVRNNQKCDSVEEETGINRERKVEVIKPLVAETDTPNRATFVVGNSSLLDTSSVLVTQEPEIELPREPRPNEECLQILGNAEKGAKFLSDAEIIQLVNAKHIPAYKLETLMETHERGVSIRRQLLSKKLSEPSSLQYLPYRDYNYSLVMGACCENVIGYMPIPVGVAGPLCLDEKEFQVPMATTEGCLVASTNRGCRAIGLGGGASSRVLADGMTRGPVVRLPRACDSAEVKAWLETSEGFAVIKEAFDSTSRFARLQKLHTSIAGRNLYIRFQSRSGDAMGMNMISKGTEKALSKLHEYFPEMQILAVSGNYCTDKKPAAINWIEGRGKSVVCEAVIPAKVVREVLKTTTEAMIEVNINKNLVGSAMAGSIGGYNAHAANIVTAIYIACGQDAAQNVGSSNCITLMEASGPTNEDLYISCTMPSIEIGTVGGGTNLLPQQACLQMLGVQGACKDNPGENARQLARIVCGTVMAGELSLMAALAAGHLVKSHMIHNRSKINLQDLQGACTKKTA

[1] = tested on: plasma proteins, primarily albumin

HMG-CoA reductase activity retained (HMG-CoA reductase)	bound to plasma proteins, primarily to albumin [1]	Compound
~50%	–	CCC(C)(C)C(=O)OC1CC(C)(O)C=C2C=CC(C)C(CCC3CC(O)CC(=O)O3)C21 (stereo not drawn) [6-beta-hydroxy simvastatin]
approximately 40%	–	CCC(C)(C)C(=O)O[C@H]1C[C@@H](CO)C=C2C=C[C@H](C)[C@H](CC[C@@H]3C[C@@H](O)CC(=O)O3)[C@H]21 [6-beta-hydroxymethyl simvastatin]
–	more than 95%	CCC(C)(C)C(=O)O[C@H]1C[C@@H](C)C=C2C=C[C@H](C)[C@H](CC[C@@H]3C[C@@H](O)CC(=O)O3)[C@H]21 [simvastatin]
